# Laboratory results as given in patent US8703963B2, “Derivative N-thiolated 2-oxazolidinone antibiotics” (University of South Florida, priority 2005, dated 2014).
# Marks after values point to notes of the source that are not given here.
# How the values were obtained:
# S. aureus = test: Broth MIC; assay type: cell-based, Staphylococcus aureus
# MRSA USF657 = test: Kirby-Bauer agar disk diffusion; details: 20 μg on 6 mm disk, 24 h at 37° C., triplicate
# MRSA USF653 = test: Kirby-Bauer agar disk diffusion; details: 20 μg on 6 mm disk, 24 h at 37° C., triplicate
# MRSA USF655 = test: Kirby-Bauer agar disk diffusion; details: 20 μg on 6 mm disk, 24 h at 37° C., triplicate
# B. globigii = test: Kirby-Bauer agar disk diffusion; assay type: cell-based; details: 20 μg on 6 mm disk, 24 h at 37° C., triplicate
# [1] = system: Bacillus anthracis (Sterne strain); assay type: cell-based; details: B. anthracis (Sterne strain); 20 μg on 6 mm disk; 24 h at 37° C.; triplicate
# B. subtilus = test: Kirby-Bauer agar disk diffusion; assay type: cell-based; details: 20 μg on 6 mm disk, 24 h at 37° C., triplicate
# MRSA USF920 (ATCC 33591) = test: Kirby-Bauer agar disk diffusion; details: 20 μg on 6 mm disk, 24 h at 37° C., triplicate
# MRSA = test: Broth MIC; assay type: cell-based, Staphylococcus aureus
# MRSA USF656 = test: Kirby-Bauer agar disk diffusion; details: 20 μg on 6 mm disk, 24 h at 37° C., triplicate
# MRSA USF919 (ATCC 43300) = test: Kirby-Bauer agar disk diffusion; details: 20 μg on 6 mm disk, 24 h at 37° C., triplicate
# [2] = system: S. aureus 849 (ATCC 25923); test: Kirby-Bauer agar disk diffusion; details: for zone of growth inhibition, average diameter: S. aureus 849 (ATCC 25923), 20 μg on 6 mm disk, 24 h at 37° C., triplicate; for S. aureus (Inhibition), median zone of inhibition: S. Aureaus strain 849, c = partial inhibition within this diameter
# MRSA USF654 = test: Kirby-Bauer agar disk diffusion; details: 20 μg on 6 mm disk, 24 h at 37° C., triplicate
# MRSA USF652 = test: Kirby-Bauer agar disk diffusion; details: 20 μg on 6 mm disk, 24 h at 37° C., triplicate
# B. coagulans = test: Kirby-Bauer agar disk diffusion; assay type: cell-based; details: 20 μg on 6 mm disk, 24 h at 37° C., triplicate
# B. cereus = test: Kirby-Bauer agar disk diffusion; assay type: cell-based; details: 20 μg on 6 mm disk, 24 h at 37° C., triplicate
# B. thurigensis = test: Kirby-Bauer agar disk diffusion; assay type: cell-based; details: 20 μg on 6 mm disk, 24 h at 37° C., triplicate
# B. megaterium = test: Kirby-Bauer agar disk diffusion; assay type: cell-based; details: 20 μg on 6 mm disk, 24 h at 37° C., triplicate
# MRSA USF658 = test: Kirby-Bauer agar disk diffusion; details: 20 μg on 6 mm disk, 24 h at 37° C., triplicate
# MRSA USF659 = test: Kirby-Bauer agar disk diffusion; details: 20 μg on 6 mm disk, 24 h at 37° C., triplicate
# [3] = system: 10 strains of MRSA (652-659, 919-920); test: Kirby-Bauer zones of inhibition, 10 strains of MRSA; details: for MRSA (inhibition), median diameter of zone of inhibition: median of 10 strains of MRSA (652-659, 919-920), c = partial inhibition within this diameter
SMILES,"zone of growth inhibition, average diameter (MRSA USF657)","zone of growth inhibition, average diameter (MRSA USF653)","zone of growth inhibition, average diameter (MRSA USF655)","zone of growth inhibition, average diameter (B. globigii)","zone of growth inhibition, average diameter [1]","zone of growth inhibition, average diameter (B. subtilus)","zone of growth inhibition, average diameter (MRSA USF920 (ATCC 33591))","zone of growth inhibition, average diameter (MRSA USF656)","zone of growth inhibition, average diameter (MRSA USF919 (ATCC 43300))","zone of growth inhibition, average diameter [2]","zone of growth inhibition, average diameter (MRSA USF654)","zone of growth inhibition, average diameter (MRSA USF652)","zone of growth inhibition, average diameter (B. coagulans)","zone of growth inhibition, average diameter (B. cereus)","zone of growth inhibition, average diameter (B. thurigensis)","zone of growth inhibition, average diameter (B. megaterium)","zone of growth inhibition, average diameter (MRSA USF658)","zone of growth inhibition, average diameter (MRSA USF659)","MRSA (inhibition), median diameter of zone of inhibition [3]","S. aureus (Inhibition), median zone of inhibition [2]",also measured
CSN1C(=O)OC[C@@H]1C(C)C [compound 8],22 mm,27 mm,22 mm,15 mm,23 mm,17 mm,18 mm,22 mm,21 mm,20 mm,23 mm,19 mm,17 mm,22 mm,16 mm,18 mm,16 mm,22 mm,,,broth MIC value (S. aureus): 16 µg/mL; broth MIC value (MRSA): 16 µg/mL
"CSN1C(=O)OC[C@H]1C(C)C [oxazolidinone 9, 4R-(+)-N-methylthio-4-isopropyl-2-oxazolidinone]",,,,,,,,,,,,,,,,,,,19^c mm,21^c mm,
CSN1C(=O)OC[C@H]1C(C)C [compound 9],19 mm,25 mm,18 mm,17 mm,15 mm,19 mm,15 mm,20 mm,13 mm,21 mm,20 mm,12 mm,0 mm,15 mm,0 mm,10 mm,19 mm,22 mm,,,"clarity of growth inhibition zones ([3]; Kirby-Bauer, anti-MRSA, compared with S-stereoisomer 8): incomplete growth inhibition"
CSN1C(=O)OC[C@H]1c1ccccc1 [compound 7],27 mm,30 mm,28 mm,17 mm,23 mm,19 mm,28 mm,28 mm,28 mm,29 mm,26 mm,30 mm,17 mm,23 mm,15 mm,20 mm,27 mm,26 mm,,,broth MIC value (S. aureus): 8 µg/mL; broth MIC value (MRSA): 8 µg/mL
CSN1C(=O)OC[C@@H]1c1ccccc1 [compound 6],29 mm,31 mm,29 mm,15 mm,23 mm,19 mm,28 mm,31 mm,30 mm,30 mm,29 mm,30 mm,17 mm,24 mm,17 mm,18 mm,29 mm,26 mm,,,
CCC(C)SN1CC(CCl)OC1=O (stereo not drawn) [compound 5],22 mm,20 mm,22 mm,,,,19 mm,20 mm,19 mm,19 mm,22 mm,19 mm,,,,,21 mm,20 mm,,,
"CSN1C(=O)OC[C@@H]1c1ccccc1 [oxazolidinone 6, 4S-(+)-N-methylthio-4-phenyl-2-oxazolidinone]",,,,,,,,,,,,,,,,,,,29 mm,30 mm,
"CSN1C(=O)OC[C@H]1c1ccccc1 [oxazolidinone 7, 4R-(−)-N-methylthio-4-phenyl-2-oxazolidinone]",,,,,,,,,,,,,,,,,,,28 mm,29 mm,
"CC1(C)S[C@@H]2[C@H](NC(=O)Cc3ccccc3)C(=O)N2[C@H]1C(=O)O [Pen G, penicillin G, reference compound]",12 mm,15 mm,14 mm,,,,,12 mm,,33 mm,10 mm,8 mm,,,,,19 mm,16 mm,,,
CSN1C(=O)OC[C@@H]1C(C)C [oxazolidinone 8],,,,,,,,,,,,,,,,,,,16^c mm,20^c mm,
"COC1C(=O)N(SC)C1c1ccccc1 (racemic) [Lac, reference compound]",27 mm,30 mm,25 mm,,,,,28 mm,,25 mm,26 mm,30 mm,,,,,26 mm,24 mm,,,
